Consider 27 molecules from PubChem BioAssay (NCI).

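Following 48 hours of exposure in 96-well plates, responses at five concentrations were used to interpolate endpoints linearly. At the GI50, growth is halved. TGI marks complete inhibition of growth.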

Holding throughout (test): growth of human tumour cells (NCI), 48 h
Assay [1] deals with IGROV1 ovarian.
The test system of assay [2] is SK-OV-3 ovarian.
Assay [3] deals with MDA-MB-231 breast.
Assay [4] deals with M14 melanoma.
The test system of assay [5] is SF-539 CNS.
The test system of assay [6] is BT-549 breast.
The subject of assay [7] is CCRF-CEM leukemia.
Assay [8] concerns OVCAR-4 ovarian.
Assay [9] relates to NCI-H226 lung.
Assay [10] deals with SN12C renal.

Turning to `CN(C)C=Nc1c2c(nc3ccccc13)CCCC2`, the TGI in assay [1], in assay [2], in assay [3], in assay [4], in [5] and in [6] was above 100 µM throughout. Also, the TGI in [7], in assay [8], in [9] and in assay [10] was above 100 µM in each case.

As for `Cc1ccc(Cc2n[nH]c(=O)n2N2C(=O)c3ccccc3C2=O)cc1`, the TGI in assay [1], in assay [3], in assay [4], in assay [5], in [6] and in assay [7] was above 100 µM in each case. Also, the TGI in assay [8], in assay [9] and in [10] was above 100 µM each time.

`Nc1nc(N)c2nc(CNc3ccc(C(=O)NC(CCNC(=O)c4ccccc4C(=O)O)C(=O)O)cc3)cnc2n1` (stereo not given): the GI50 in assay [1] is 0.0358 µM; in assay [4] it was 0.0737 µM; in assay [5], 0.0574 µM; in assay [7], 0.0065 µM; in assay [10], 0.102 µM. The TGI in [1], in [2], in assay [3], in assay [4], in assay [6] and in [7] was above 100 µM each time. The TGI in assay [8], in assay [9] and in [10] was above 100 µM each time.

With `CC1(C)OC2[C@@H](CO[C@@]3([C@H]4OC(C)(C)O[C@@H]4CO)OC(C)(C)O[C@@H]23)O1` (stereo not given in full), the TGI in assay [1], in assay [2], in [3], in assay [4], in assay [6] and in assay [7] was above 100 µM each time. Moreover, the TGI in assay [8], in assay [9] and in assay [10] was above 100 µM throughout.

On to `COC(=O)CN(CC1O[C@@H]2OC(C)(C)O[C@@H]2C1NC(C)=O)C(=O)OCc1ccccc1` (stereo not given in full), for which the TGI in [1], in assay [2], in assay [3], in assay [4], in [5] and in assay [6] was above 100 µM throughout. The TGI in assay [8], in [9] and in assay [10] was above 100 µM each time.

For the molecule `COc1cc(/C=C/c2ccc(S(N)(=O)=O)cc2)cc(OC)c1`, the GI50 was 23.1 µM in [1]; 18.8 µM in assay [5]; 10.7 µM in [6]; 19.9 µM in assay [7]; 21.2 µM in assay [8]; 12.3 µM in assay [9]. For the same molecule, the TGI is 45.5 µM in [1]; 75.7 µM in [2]; 46.6 µM in assay [3]; above 100 µM in [4]; 46.2 µM in [5]; 41.1 µM in assay [6]. Besides, the TGI in assay [7] is 52.3 µM; in [8], 50.9 µM; in assay [9], 38.1 µM; in assay [10], 55.2 µM.

`CC1(C)OC2OC(C(=O)c3ccccc3)C3OC(C)(C)OC3C2O1` (stereo not given): the TGI in assay [1], in assay [2], in [3], in assay [4], in assay [5] and in assay [6] was above 100 µM throughout. Also, the TGI in [7], in assay [8], in assay [9] and in assay [10] was above 100 µM each time.

`C=CC(=C)CCC(Br)C(C)(C)Cl` (stereo not given): the TGI in assay [1], in assay [2], in [3], in assay [4], in assay [5] and in assay [6] was above 100 µM in each case. For the same molecule, the TGI in [7], in [8], in [9] and in assay [10] was above 100 µM throughout.

On to `CCOC(=O)C(NC(=O)c1ccccc1)(Nc1ccc(S(=O)(=O)Nc2ccc(OC)nn2)cc1)C(F)(F)F` (stereo not given), for which the TGI in [1], in [2], in [3], in [4], in assay [5] and in assay [6] was above 100 µM in each case. Also, the TGI in assay [7], in assay [8], in assay [9] and in assay [10] was above 100 µM each time.

On to `CC(=O)N1CCN(CCCCN2c3ccccc3Sc3cc(N=[N+]=[N-])ccc32)CC1`, for which the TGI in assay [1] stood at 29.1 µM; in assay [3], 26.7 µM; in assay [5], 31.8 µM; in [6], 31.6 µM; in assay [7], 33.2 µM; in [9] it was 35.5 µM. In assay [10], the TGI turned out to be 31.4 µM.

Regarding `O=C1c2ccccc2C(=O)c2c(NCC3CO3)cccc21` (stereo not given), the TGI was above 60.3 µM in assay [1]; above 100 µM in [2]; above 75 µM in assay [3]; 27.6 µM in assay [4]; above 100 µM in assay [5]; 66.8 µM in assay [6]. Also, the TGI in [7] is 7.71 µM; in [8], above 100 µM; in [9], above 100 µM; in [10] it was 20.1 µM.

With `c1ccc(Sc2nc(Sc3ccccc3)nc(Sc3ccccc3)n2)cc1`, the TGI in assay [2], in assay [3], in assay [4], in [5], in assay [6] and in assay [7] was above 100 µM throughout. The TGI is above 100 µM in [8], 77.9 µM in assay [9] and above 100 µM in [10].

Regarding `COc1ccccc1[C@@H]1CCC2CC[C@@H](c3ccccc3OC)[N+]21Cc1ccccc1` (stereo not given in full), the TGI in [1] came to 5.7 µM; in assay [2], 11.7 µM; in assay [3], 9.83 µM; in [4], 12 µM; in assay [6] it was 7.63 µM; in assay [7], 20.3 µM. The values for the TGI in assay [8], in assay [9] and in [10] were 16.1 µM, 6.73 µM and 10.4 µM, respectively.

Regarding `Cc1sc2nc3n(c(=O)c2c1C)N=C(c1ccccc1)CS3`, the TGI in [1], in [2], in assay [3], in assay [5], in [6] and in assay [7] was above 100 µM in each case. Also, the TGI in assay [8], in assay [9] and in assay [10] was above 100 µM throughout.

Regarding `CN1C(=O)[C@@H]2[C@@H]3c4ccccc4N[C@@H]3c3[nH]c4ccccc4c3[C@@H]2C1=O`, the TGI in assay [1] was found to be 26.9 µM; in assay [2], 66.7 µM; in assay [3], 63.2 µM; in assay [5], 39.3 µM; in assay [6], 53.6 µM; in assay [7], 46.5 µM. For the same molecule, the TGI was 54.3 µM in [8], above 100 µM in [9] and above 100 µM in assay [10].

Regarding `O=C1c2c(F)c(F)c(F)c(F)c2SC2=Nc3cccc4cccc(c34)N12`, the TGI turned out to be 24.1 µM in assay [1]; 23.2 µM in [2]; 11.7 µM in [3]; 13.1 µM in assay [4]; 14 µM in assay [5]; 23.9 µM in [6]. Further, the TGI in assay [7] is above 25.1 µM; in assay [8], 9 µM; in assay [9] it was 28.7 µM; in [10], 10.4 µM.

For `CCOC(=O)[C@H](CO)Nc1c(O)c2c(c(O)c1Cl)C(=O)C=CC2=O`, the TGI in assay [1], in [2], in [3], in assay [4], in assay [5] and in [6] was above 10 µM each time. Also, the TGI in assay [7], in [8], in assay [9] and in assay [10] was above 10 µM in each case.

Turning to `C=C(C)[C@@H]1CCC2=C(CC[C@]3(C)[C@@H]([C@@H](CCC=C(C)C)C(=O)O)[C@H](O)C[C@@]23C)[C@@]1(C)CCC(=O)O`, the TGI in [1], in assay [2], in assay [3], in assay [4], in assay [5] and in assay [6] was above 100 µM each time. For the same molecule, the TGI in assay [7], in [8], in [9] and in assay [10] was above 100 µM each time.

Turning to `COc1cc(C2c3cc4c(cc3OC(NNc3ccccc3)C2C)OCO4)cc(OC)c1O` (stereo not given), the TGI in assay [1] worked out at 24.6 µM; in [2], 22.7 µM; in assay [3] it was 8.53 µM; in [4], 13.3 µM; in [5] it was 2.98 µM; in [6] it was 28 µM. In addition, the TGI in assay [7] stood at 21.3 µM; in [8], 38.2 µM; in [9] it was 14.6 µM; in assay [10] it was 4.63 µM.

`CCC1OC2C(CC=C(C)C)=C3OC(C)(O)C(C)(CC)C(=O)C3=C3OC(=O)C=C1C32` (stereo not given): the TGI in [2] is above 100 µM; in [3] it was 41.1 µM; in assay [4] it was above 100 µM; in assay [5], 23.1 µM; in assay [6] it was 49.5 µM; in assay [7] it was above 100 µM. Moreover, the TGI in assay [8] and in [9] was above 100 µM in each case.

`O=c1cc(NNc2cccc(F)c2)[nH]c(=S)[nH]1`: the TGI in assay [1], in assay [3], in [4], in assay [5], in assay [6] and in assay [8] was above 100 µM each time. Also, the TGI in [9] and in assay [10] was above 100 µM throughout.

As for `CCOC(=O)[C@@]12NN=N[C@@H]1[C@H]1CO[C@H](c3ccccc3)N1C2=O`, the TGI in [1] was 20.3 µM; in assay [2] it was 33.6 µM; in assay [3], 30.6 µM; in assay [4], 33 µM; in [5] it was 25.3 µM; in [6], 25.9 µM. Moreover, the TGI in assay [7] was above 100 µM; in assay [8] it was 32.4 µM; in [10], 26.8 µM.

`COc1ccc(Oc2nc3c(N)cc(C(F)(F)F)cc3nc2-c2ccccc2)cc1`: the TGI in [1] was 43.5 µM; in assay [2], 43.7 µM; in [3] it was above 100 µM; in assay [4], 41.3 µM; in [5], above 100 µM; in assay [6] it was above 100 µM. In addition, the TGI in [7] is above 100 µM; in assay [8], above 100 µM; in assay [9], 35.7 µM.

`Cc1cc2nc(CC(C(F)(F)F)C(F)(F)F)oc2cc1C`: the TGI was 10.1 µM in assay [1]; above 44.4 µM in [2]; 9.09 µM in assay [3]; 4.72 µM in [4]; 7.66 µM in assay [5]; 6.65 µM in [6]. In addition, the TGI is above 100 µM in [7], 6.92 µM in assay [8] and 4.81 µM in assay [9].

As for `COc1cc2nc3n(c(=O)c2cc1OC)CCCCC3`, the TGI in [1], in assay [2], in assay [3], in assay [4], in [6] and in assay [7] was above 100 µM each time. Moreover, the TGI in assay [8], in [9] and in assay [10] was above 100 µM in each case.

In the case of `COc1c(C)c(C/C=C(\C)CCCCO)c(OC)c2ccccc12`, the TGI in assay [1], in assay [2], in assay [3], in assay [4], in [5] and in assay [6] was above 100 µM throughout. The TGI in [7] was 63 µM; in assay [8], above 100 µM; in [10] it was 52.9 µM.

With `Cc1csc2c(=O)n(COCc3ccccc3)c(=O)[nH]c12`, the TGI in assay [1], in [3], in assay [4], in [5], in assay [6] and in [7] was above 100 µM each time. Also, the TGI in assay [8], in assay [9] and in assay [10] was above 100 µM each time.
